From the Deep4Chem optical property database
“And” between values parts separate entries of the source, which are not always exact repeats. Identical values can stand only once. Each block holds one compound with its values, some of them ahead of it.

Assay: photoluminescence quantum yield (fraction); solvent given as SMILES
[1] = in c1cc(-c2cccc(-n3c4ccccc4c4ccccc43)c2)cc(-n2c3ccccc3c3ccccc32)c1

SMILES: c1ccc2c(c1)c1ccccc1c1[nH]c(-c3ccc(-c4nc5c6ccccc6c6ccccc6c5[nH]4)cc3)nc21
photoluminescence quantum yield (in C1CCOC1): 0.79
photoluminescence quantum yield (in CC#N): 0.76
photoluminescence quantum yield (in CCO): 0.77
photoluminescence quantum yield (in CS(C)=O): 0.78
photoluminescence quantum yield (in ClCCl): 0.76

SMILES: CC1=[N+]2C(=C(c3ccccc3)c3ccc(/C=C/c4ccc(C(=C(c5ccccc5)c5ccccc5)c5ccccc5)cc4)n3[B-]2(F)F)C=C1
photoluminescence quantum yield (in C1CCOC1): 0.746

SMILES: CCCCCCCCCCCCOc1ccc(C#CC(C#Cc2ccc(OCCCCCCCCCCCC)cc2)=Cc2cc(C=C(C#Cc3ccc(OCCCCCCCCCCCC)cc3)C#Cc3ccc(OCCCCCCCCCCCC)cc3)cc(C=C(C#Cc3ccc(OCCCCCCCCCCCC)cc3)C#Cc3ccc(OCCCCCCCCCCCC)cc3)c2)cc1
photoluminescence quantum yield (in CCOC(C)=O): 0.35

SMILES: N#Cc1ccc(C[C@H](N)C(=O)O)cc1
photoluminescence quantum yield (in C1CCOC1): 0.031
photoluminescence quantum yield (in CC#N): 0.026
photoluminescence quantum yield (in CC(C)O): 0.071
photoluminescence quantum yield (in CC(O)CO): 0.1
photoluminescence quantum yield (in CCCCO): 0.079
photoluminescence quantum yield (in CCCO): 0.074
photoluminescence quantum yield (in CCO): 0.034
photoluminescence quantum yield (in CO): 0.076
photoluminescence quantum yield (in NC=O): 0.083
photoluminescence quantum yield (in O): 0.11
photoluminescence quantum yield (in O=CO): 0.17

SMILES: CCN(CC)c1ccc(/C=C/C2=[O+][B-](F)(F)Oc3c2c(=O)oc2cc(N(CC)CC)ccc32)cc1
photoluminescence quantum yield (in C1CCCCC1): 0.46
photoluminescence quantum yield (in C1COCCO1): 0.72
photoluminescence quantum yield (in CC#N): 0.011
photoluminescence quantum yield (in CC(C)=O): 0.021
photoluminescence quantum yield (in CCO): 0.044
photoluminescence quantum yield (in CCOC(C)=O): 0.16
photoluminescence quantum yield (in CO): 0.016
photoluminescence quantum yield (in CS(C)=O): 0.035
photoluminescence quantum yield (in Cc1ccccc1): 0.93
photoluminescence quantum yield (in ClC(Cl)Cl): 0.75
photoluminescence quantum yield (in ClCCl): 0.16
photoluminescence quantum yield (in OCC(O)CO): 0.36
photoluminescence quantum yield (in OCCO): 0.072

SMILES: CCN1/C(=C\c2c(-c3ccc(N(C)C)cc3)c(=O)c2=O)C=Cc2ccccc21
photoluminescence quantum yield (in C1CCCCC1): 0.0276
photoluminescence quantum yield (in Cc1ccccc1): 0.0226
photoluminescence quantum yield (in ClCCl): 0.001

SMILES: CC1(C)c2ccccc2N(c2ccc(-c3nc(C#N)c(C#N)nc3-c3ccc(N4c5ccccc5C(C)(C)c5ccccc54)cc3)cc2)c2ccccc21
photoluminescence quantum yield (in Cc1ccccc1): 0.2
photoluminescence quantum yield [1]: 0.67

SMILES: CC1=[N+]2C(=C(c3ccc(C(=C(c4ccccc4)c4ccccc4)c4ccccc4)cc3)c3ccc(C)n3[B-]2(F)F)C=C1
photoluminescence quantum yield (in C1CCOC1): 0.038

SMILES: CC1(C)c2ccccc2N(c2ccc(-c3ccc4c(c3)C(=O)c3ccc(-c5ccc(N6c7ccccc7C(C)(C)c7ccccc76)cc5)cc3C4=O)cc2)c2ccccc21
photoluminescence quantum yield (in Cc1ccccc1): 0.17
photoluminescence quantum yield (in c1ccc2c(c1)c1ccccc1n2-c1ccc(-c2ccc(-n3c4ccccc4c4ccccc43)cc2)cc1): 0.5

SMILES: N#Cc1c(-n2c3ccc(Br)cc3c3cc(Br)ccc32)c(C#N)c(-n2c3ccc(Br)cc3c3cc(Br)ccc32)c(-n2c3ccc(Br)cc3c3cc(Br)ccc32)c1-n1c2ccc(Br)cc2c2cc(Br)ccc21
photoluminescence quantum yield (in Cc1ccccc1): 0.67

SMILES: COCCC1=Cc2nc1ccc1[nH]c(cc1CCOC)c1nc(ccc3[nH]c2cc3CCO)C(CCOC)=C1
photoluminescence quantum yield (in Cc1ccccc1): 0.32

SMILES: Oc1ccccc1-c1nc2c3ccccc3c3ccccc3c2o1
photoluminescence quantum yield (in Cc1ccccc1): 0.003

SMILES: CC1=C2C=CC=[N+]2[B-](F)(F)n2cccc21
photoluminescence quantum yield (in CCCCCC): 0.96
photoluminescence quantum yield (in CO): 1
photoluminescence quantum yield (in ClCCl): 0.88

SMILES: CC[N+]1(CC)CN2C(=N1)C(C(=O)O)=Cc1c2ccc2ccccc12
photoluminescence quantum yield (in O): 0.711

SMILES: c1ccc(Nc2nc(Nc3ccccc3)nc(Nc3ccc4cc5ccccc5cc4c3)n2)cc1
photoluminescence quantum yield (in C1COCCO1): 0.62
photoluminescence quantum yield (in CC#N): 0.43
photoluminescence quantum yield (in CCCCOCCCC): 0.41
photoluminescence quantum yield (in CCOC(C)=O): 0.3

SMILES: O=Cc1ccc2nc(C#Cc3ccc(N(c4ccccc4)c4ccccc4)cc3)sc2c1
photoluminescence quantum yield (in Cc1ccccc1): 1

SMILES: O=c1oc2c(ccc3ccccc32)nc1-c1ccccc1
photoluminescence quantum yield (in CC#N): 0.5
photoluminescence quantum yield (in CCCCCC): 0.32
photoluminescence quantum yield (in CO): 0.45
photoluminescence quantum yield (in c1ccccc1): 0.46 and 0.534

SMILES: CC1=c2c3c4cccc5cccc(c=3c(C)[n+]2[B-](F)(F)n2c(C)c3c(c21)-c1cccc2cccc-3c12)c54
photoluminescence quantum yield (in ClC(Cl)Cl): 0

SMILES: COc1ccc2cc(C3=[N+]4C(=Nc5c(-c6ccc7ccccc7c6)cc(-c6ccc7cc(OC)ccc7c6)n5[B-]4(F)F)C(c4ccc5ccccc5c4)=C3)ccc2c1
photoluminescence quantum yield (in ClCCl): 0.29

SMILES: COC(=O)c1cc(OC)ccc1OC
photoluminescence quantum yield (in CO): 0.64

SMILES: CC1CCC(=CS/C=C/c2ccc(/C=C/SC=C3CCC(C)CC3)cc2)CC1 (centres undefined)
photoluminescence quantum yield (in ClCCl): 0.027

SMILES: COc1ccc(-c2c3cc4cc(C)sc4cc3c(-c3ccc(OC)cc3)c3cc4cc(C)sc4cc23)cc1
photoluminescence quantum yield (in ClCCl): 0.61

SMILES: c1ccc(-c2nc3ccccc3nc2-c2ccc(-n3c4ccccc4c4ccccc43)cc2)cc1
photoluminescence quantum yield (in Cc1ccccc1): 0.32

SMILES: Cc1cc(C)c(B(c2c(C)cc(C)cc2C)N2c3ccccc3C3(c4ccccc4-c4ccccc43)c3ccccc32)c(C)c1
photoluminescence quantum yield (in C1CCCCC1): 0.978
photoluminescence quantum yield (in Cc1ccccc1): 0.942
photoluminescence quantum yield (in ClCCl): 0.539

SMILES: CCN1c2ccc(/C=N/Nc3ccccn3)cc2Sc2cc(-c3ccc(C#N)cc3)ccc21
photoluminescence quantum yield (in C1CCOC1): 0.23
photoluminescence quantum yield (in CS(C)=O): 0.23
photoluminescence quantum yield (in Cc1ccccc1): 0.33
photoluminescence quantum yield (in ClCCl): 0.36

The remaining lines, values ahead:

photoluminescence quantum yield (in CO): 0.62
photoluminescence quantum yield (in O): 0.28
SMILES: CC1(C)C(/C=C/C=C/C=C/C=C2/N(CCCCCC(=O)O)c3ccc(S(=O)(=O)[O-])cc3C2(C)C)=[N+](CCCCCC(=O)O)c2ccc(S(=O)(=O)[O-])cc21

photoluminescence quantum yield (in C1CCCCC1): 0.98
photoluminescence quantum yield (in CC#N): 0.013
photoluminescence quantum yield (in CO): 0.011
photoluminescence quantum yield (in ClC(Cl)Cl): 0.73
SMILES: CN(C)c1ccc(-c2ccc(-c3nc(C#N)c(C#N)n3C)cc2)cc1

photoluminescence quantum yield (in CCO): 0.06
photoluminescence quantum yield (in CO): 0.07
photoluminescence quantum yield (in CS(C)=O): 0.24
SMILES: CN1/C(=C/C=C(/C=C/c2sc3ccccc3[n+]2C)c2ccccc2)Sc2ccccc21

photoluminescence quantum yield (in C1CCCCC1): 0.368
SMILES: COC(=O)c1noc(-c2ccccc2)c1Cl

photoluminescence quantum yield (in C1CCCCC1): 0.8
SMILES: Cc1cc(C)c(B2c3cc(C(C)(C)C)ccc3-c3cccc4cc(C(C)(C)C)cc2c34)c(C)c1

photoluminescence quantum yield (in CN(C)C=O): 0.2
SMILES: NNC(=O)c1ccc(/C=C/c2ccc(C(=O)NN)cc2)cc1

photoluminescence quantum yield (in CCO): 0.88
SMILES: CC(NC(=O)OC(C)(C)C)C(=O)OCc1ccc2c3cccc4cccc(c5cccc1c52)c43 (centres undefined)

photoluminescence quantum yield (in ClCCl): 0.00059
SMILES: COc1cc2c(cc1OC)C1=C[C@H](c3ccccc3)C3(C(C#N)=C(C#N)N1CC2)c1cc(Br)ccc1-c1ccc(Br)cc13

photoluminescence quantum yield (in ClCCl): 0.01
SMILES: CN(C)c1ccc(C2=[N+]3C(=Nc4c5ccccc5c(-c5ccc(N(C)C)cc5)n4[B-]3(F)F)c3ccccc32)cc1

photoluminescence quantum yield (in CC#N): 0.03
photoluminescence quantum yield (in ClCCl): 0.01
SMILES: COC(=O)c1cc(=O)n(C)c2cc(-c3cccc(N(C)C)c3)sc12

photoluminescence quantum yield (in C1CCCCC1): 0.03
photoluminescence quantum yield (in CO): 0.66
photoluminescence quantum yield (in CS(C)=O): 0.8
photoluminescence quantum yield (in ClC(Cl)Cl): 0.71
photoluminescence quantum yield (in c1ccccc1): 0.18
SMILES: CCC1=C(C)C(=O)n2c1cc1c(c(C)c(C(=O)OC)n1C)c2=O

photoluminescence quantum yield [1]: 0.84
SMILES: CC1(C)c2ccccc2N(c2ccc3c(c2)c2cc(N4c5ccccc5C(C)(C)c5ccccc54)ccc2c2nc4ccccc4nc32)c2ccccc21

photoluminescence quantum yield (in CCO): 0.32
photoluminescence quantum yield (in O): 0.26
SMILES: CC/[NH+]=c1\cc2oc3cc(NCCOC(=O)C(NC(=O)OC(C)(C)C)C(C)C)c4ccccc4c3nc-2cc1C (centres undefined)

photoluminescence quantum yield (in ClC(Cl)Cl): 0.002
SMILES: CCCCCCN1C(=O)c2cccc3cc(/N=C\c4nc5ccccc5s4)cc(c23)C1=O
